Test results published in US20080182904A1, “Baclofen for Relapse Protection in Addiction” (priority 2007, published 2008).

Experiments:
[1] = cited from earlier work
[2] = Alcohol-challenge test for relapse in a patient treated with baclofen for alcohol dependence; assay type: in vivo, human
Method: For alcoholism, vulnerability is tested with an alcohol-challenge test of about three to five standard drinks. The number of drinks can and should be varied (typically lower) if any adverse signs or cravings appear in the patient. […] If craving occurs, the patient is not protected against relapse and the SSD dosage needs to be increased and the test performed again until craving stops occurring altogether upon renewed alcohol-challenge (s). Once that state is achieved, the patient is protected against relapse.
The susceptibility of a patient to relapse while being treated for alcohol dependence using baclofen was determined. The patient (themself a physician) had been symptom-free for more than one year and was on a baclofen dose of 120 mg/day (40 mg, three times per day).
First challenge: During a social gathering, the patient had 3 standard drinks of alcohol (gin and tonic) over a few hours and evaluated the effects in the presence of a physician witness. The first drink was consumed slowly by sipping over some 40 minutes, without the slightest urge to drink it rapidly (and which had previously been the only way the patient would drink, e.g., typically consuming the drink within 5 minutes). A second drink was ordered, consumed and started to produce a pleasant mild euphoria. A third drink was begun but the patient was not able to finish it, something that would have been impossible during untreated alcohol dependence. At the time, the patient felt no desire to finish the third drink, felt a bit high and maintained the ability to chat. After a night's sleep, the patient woke up without any feelings of remorse or fear. […] The following hours were unremarkable. No alcohol thoughts or dreams occurred in the following weeks.
Second challenge: The patient repeated the experiment approximately one month later with an even stronger challenge: five drinks. Again in the presence of another physician, the patient succeeded in having 5 drinks of vodka and tonic over 6 hours. […] Accordingly the daily dosage of baclofen was increased from 40 mg three times daily, to 60 mg three times daily (180 mg/day). […] Accordingly, symptom suppression is dose-dependent and may require higher dosage when challenge is important.
Third challenge: To test if a higher than routine dose of baclofen can prevent cravings, even in the presence of a massive amount of alcohol such as is ingested during heavy drinking or during active relapse, the patient's baclofen dose was […] 24 hours prior to consuming an alcoholic beverage. The patient took 30 mg baclofen in the morning, a second such dose 8 hours later and a few hours later (in the evening) took dose of 80 mg baclofen at the same time as beginning to drink large amounts of alcohol as could reasonably tolerated, expecting that to be about a fifth of Scotch. The alcohol was consumed over several hours and the next day, actual consumption was measured to be four fifths of the bottle. […] The patient is able to have an occasional drink in a non-dependent fashion.

[3] = cited from earlier work; remark: listed apart in the source

## NCC(CC(=O)O)c1ccc(Cl)cc1 (centres unmarked) [baclofen]
[1]; after progressive reduction from SSD, over the complete nine months of the published study
  dosage sufficient for craving not to reappear: 120 mg/day
[1]; at SSD
  coexistent (comorbid preexisting) anxiety: greatly attenuated
[1]; at SSD, reduced by lowering the dosage to 120 mg/day
  side effect: somnolence
[1]; oral, gradual dose-escalation, one patient
  dose needed for craving to completely and permanently disappear (symptom-suppressing dose, SSD): 270 mg/day
[2]; 30 mg + 30 mg + 80 mg on the day, four fifths of a bottle of Scotch over several hours, next day
  craving after third challenge: no craving and no desire whatsoever to drink liquor
[2]; 120 mg/day (40 mg three times per day), symptom-free for more than one year
  craving and symptoms before challenge: completely suppressed craving and symptoms
[2]; 180 mg/day for six days, then maintenance dose of 120 mg/day
  craving during follow-up after third challenge: has not experienced any craving for more than one year
[2]; 3 standard drinks (gin and tonic) over a few hours, 120 mg/day, after a night's sleep
  craving after first challenge: no desire or thought to drink whatsoever
[2]; 5 drinks of vodka and tonic over 6 hours, 120 mg/day, next day in the afternoon
  craving after second challenge: a bout of craving was experienced
[2]; second challenge, 60 mg three times daily (180 mg/day)
  craving on the increased regimen: craving was again completely suppressed
[2]; second challenge, administration of 40 mg, craving reappeared several hours later
  effect of an additional dose on the bout of craving: suppressed the craving within the hour
[2]; second challenge, after six days at 180 mg/day progressively reduced to 120 mg/day
  craving after dose reduction: cravings did not reoccur
[3]; seven individual patients (Geneva) and one hundred patients (Vienna)
  complete and prolonged suppression of symptoms and consequences of AD: successfully reproduced
[3]; some patients treated in Switzerland, even at high-dose baclofen
  relapse: did relapse
